Measured values from patent US5591758A, “Organic nitrates, processes for their preparation and their use in the treatment of cardiovascular diseases” (Laboratoires Hoechst, SA, priority 1991, dated 1997).
Where a name gives a salt, the structure may show the parent alone.

Legend:
[1] = tested on: anesthetised dogs; assay: Haemodynamic effects on anesthetised dogs; type: in vivo, dogs (labrador/harrier cross); conditions: dogs
Method: Haemodynamic effects of the compounds according to the invention on anesthetised pigs or dogs
The dogs, weighing between 16 and 26 kg, are the progeny of a labrador/harrier cross.
In the case of dogs the anesthesia is induced by sodium pentobarbitol (45 mg/jg i.v.) and maintained with an i.v. perfusion (flow rate of 8 mg/kg/h).
The pigs or dogs are placed under artificial respiration in ambient air. Analysis of the blood gases (pO2, pCO2) is carried out at regular intervals and oxygen can be supplied via the respirator, if necessary.
The haemodynamic parameters recorded include the left ventricular pressure (LVP; Millar PC350 Tip catheter inserted via the carotid artery), systemic blood pressure (BPs, BPd; full catheter in a femoral artery), the end pressure of the left ventricular diastole (LVEDP), the ventricular contractility (LVPdp/dtmax) and the heart rate (HR).
Following an equilibration period of the order of 45 minutes, the compounds studied are administered intraduodenally (i.d.) or intraveinously (i.v.) to several animals (1 to 4). The haemodynamic variables are recorded continuously for 1 to 3 hours, as a function of the period of action of the compound.
The effects of the compounds studied are shown as the absolute difference with respect to the base value (bv) measured before administration of the compounds and are shown in Table VII (a,b,c).
An antianginal activity is estimated by a fall in the BPs and the LVEDP (fall in venous return).

[2] = tested on: thoracic aorta; assay: Vasorelaxant effect on isolated vessels (rat thoracic aorta rings without endothelium, precontracted with noradrenalin); design: species or system Wistar rats; conditions: for Emax: Rattus norvegicus, maximum inhibition of noradrenalin effect, 10^-8 to 10^-4 M substance, read-out: Maximum Relaxation; for IC50: rat aorta, 10^-7 M noradrenalin contraction
Method: Vasorelaxant effect of the compounds according to the invention on isolated vessels.
Adult Wistar rats weighing between 250 and 350 g are anaesthetised by intraperitoneal injection of sodium pentobarbital (30 mg/kg). The thoracic aorta is rapidly removed and placed in a refrigerated and oxygenated solution of bicarbonate buffer of the Krebs-Ringer type (composition [mM]: NaCl, 118; KCl, 4.7; CaCl2, 2.5; MgSO4, 1.2; KH2 PO4, 1.2; NaHCO3, 25.0; disodium calcium salt of EDTA, 0.026; glucose 11.1). The aorta is dissected with the aim of removing the connective tissue and then cut into 6 rings (length 5-10 mm). The endothelium is removed by moderate abrasion of the intimal surface of the aortic segments with the aid of a pair of tweezers. These segments are then placed between two hooks in an isolated organ cell filled with 25 ml of bicarbonate buffer (pH 7.4), thermostat-controlled at 37° C. and oxygenated with the aid of a 95% O2 /5% CO2 mixture (pH 7.4). One of the hooks is fixed to a fixed point, while the second is connected to a transducer with the aim of measuring the variations in isometric voltage (expressed in grams). After an equilibration period of 30 min., the segments are progressively withdrawn so as to attain the level of base voltage for which the contractor response to noradrenalin (10^-7 M) is maximum (optimum voltage; average 2 g). The absence of endothelium is verified by addition of a single concentration of acetylcholine (10^-6 M), after precontraction of the vessels by noradrenalin (10^-7 M). The integrity of the vascular smooth muscle is also verified by adding a single concentration of a vasodilator whose response is independent of the presence of the endothelium, SIN-1 (10^-5 M). After this initial procedure, the aortas are washed, equilibrated for a period of 30 min and then recontracted (10^-7 M noradrenalin). The relaxant effect of the substance to be tested is then evaluated by adding increasing concentrations of this substance (from 10^-8 to 10^-4 M). The maximum inhibition of the concentration caused by noradrenalin (expressed as a percentage) is then calculated ("maximum relaxation"). When this maximum relaxation is greater than 50%, the concentration of substance tested producing a 50% inhibition of the maximum contraction (IC50) is calculated. Table V below collates the IC50 and the maximum relaxation percentages for the various compounds tested.

O=C(N[C@H]1CO[C@H]2[C@@H]1OC[C@H]2O[N+](=O)[O-])[C@@H]1CSCN1 [Compound 40, 2-[[(4-L-Thiazolidinyl)carbonyl]amino]-2-deoxy-5-O-nitro-1,4:3,6-dianhydro-D-glucitol monohydrochloride]
BPs (min), period of action ([1]; 3 mg/kg i.v.): > 90 min | BPs, difference to base value ([1]; 3 mg/kg i.v.): -10 mmHg | LVEDP (min), period of action ([1]; 3 mg/kg i.v.): > 90 min | LVEDP, difference to base value ([1]; 3 mg/kg i.v.): -1,0 mmHg | Emax [2]: 38% | IC50 [2]: > 100 µM

NCC(=O)O[C@H]1CO[C@H]2[C@@H]1OC[C@H]2O[N+](=O)[O-] [Compound 2, Glycine ester of 5-O-nitro-1,4:3,6-dianhydro-D-glucitol monohydrochloride]
BPs (min), period of action ([1]; 3 mg/kg i.v.): > 120 min | BPs, difference to base value ([1]; 3 mg/kg i.v.): -10 mmHg | LVEDP (min), period of action ([1]; 3 mg/kg i.v.): > 120 min | LVEDP, difference to base value ([1]; 3 mg/kg i.v.): -1,0 mmHg | Emax [2]: 52% | IC50 [2]: 100 µM

CSCC[C@H](NC(=O)OC(C)(C)C)C(=O)N[C@H]1CO[C@H]2[C@@H]1OC[C@H]2O[N+](=O)[O-] [Compound 43, N-[(t-Butoxy)carbonyl]-L-methionine amide of 2-amino-2-deoxy-5-O-nitro-1,4:3,6-dianhydro-D-glucitol]
BPs (min), period of action ([1]; 10 mg/kg i.v.): 90 min | BPs, difference to base value ([1]; 10 mg/kg i.v.): -20 mmHg | LVEDP (min), period of action ([1]; 10 mg/kg i.v.): 60 min | LVEDP, difference to base value ([1]; 10 mg/kg i.v.): -1,0 mmHg | Emax [2]: 80% | IC50 [2]: 32 µM

CC(=O)NCSC[C@H](NC(=O)OC(C)(C)C)C(=O)O[C@@H]1CO[C@H]2[C@@H]1OC[C@@H]2O[N+](=O)[O-] [Compound 26, S-[(Acetylamino)methyl]-N-[(t-butoxy)carbonyl]-L-cysteine ester of 2-O-nitro-1,4:3,6-dianhydro-D-glucitol]
BPs (min), period of action ([1]; 10 mg/kg i.v.): > 90 min | BPs, difference to base value ([1]; 10 mg/kg i.v.): -10 mmHg | LVEDP (min), period of action ([1]; 10 mg/kg i.v.): > 90 min | LVEDP, difference to base value ([1]; 10 mg/kg i.v.): 2,0 mmHg | Emax [2]: 70% | IC50 [2]: 80 µM

CC(C)(C)OC(=O)N1CSC[C@H]1C(=O)N1CCC[C@H]1C(=O)N[C@H]1CO[C@H]2[C@@H]1OC[C@@H]2O[N+](=O)[O-] [Compound 69, 5-[[[(2S)-N-[(3-t-butoxycarbonyl-4-L-thiazolidinyl)carbonyl]-2-pyrrolidinyl]carbonyl]amino]-5-deoxy-2-O-nitro-1,4:3,6-dianhydro-L-iditol]
BPs (min), period of action ([1]; 3 mg/kg i.d.): > 150 min | BPs, difference to base value ([1]; 3 mg/kg i.d.): -40 mmHg | LVEDP (min), period of action ([1]; 3 mg/kg i.d.): > 150 min | LVEDP, difference to base value ([1]; 3 mg/kg i.d.): -2,5 mmHg | Emax [2]: 87% | IC50 [2]: 42 µM

CC(C)(C)OC(=O)N1CCC[C@H]1C(=O)N[C@H]1CO[C@H]2[C@@H]1OC[C@@H]2O[N+](=O)[O-] [Compound 13, N-[(t-Butoxy)carbonyl]-L-proline amide of 5-amino-5-deoxy-2-O-nitro-1,4:3,6-dianhydro-L-iditol]
BPs (min), period of action ([1]; 3 mg/kg i.d.): > 120 min | BPs, difference to base value ([1]; 3 mg/kg i.d.): -30 mmHg | Emax [2]: 74% | IC50 [2]: 49 µM

CSCC[C@H](NC(=O)OC(C)(C)C)C(=O)N[C@H]1CO[C@H]2[C@@H]1OC[C@@H]2O[N+](=O)[O-] [Compound 37, N-[(t-Butoxy)carbonyl]-L-methionine amide of 5-amino-5-deoxy-2-O-nitro-1,4:3,6-dianhydro-L-iditol]
BPs (min), period of action ([1]; 10 mg/kg i.v.): > 90 min | BPs, difference to base value ([1]; 10 mg/kg i.v.): -25 mmHg | LVEDP (min), period of action ([1]; 10 mg/kg i.v.): 30 min | LVEDP, difference to base value ([1]; 10 mg/kg i.v.): -2,0 mmHg | Emax [2]: 100% | IC50 [2]: 13 µM

CC(=O)NCSC[C@H](N)C(=O)N[C@H]1CO[C@H]2[C@@H]1OC[C@H]2O[N+](=O)[O-] [Compound 42, S-[(Acetylamino)methyl]-L-cysteine amide of 2-amino-2-deoxy-5-O-nitro-1,4:3,6-dianhydro-D-glucitol monohydrochloride]
BPs (min), period of action ([1]; 10 mg/kg i.v.): > 90 min | BPs, difference to base value ([1]; 10 mg/kg i.v.): -10 mmHg | LVEDP (min), period of action ([1]; 10 mg/kg i.v.): 0 min | LVEDP, difference to base value ([1]; 10 mg/kg i.v.): 0,0 mmHg | Emax [2]: 92% | IC50 [2]: 33 µM

CSCC[C@H](NC(=O)[C@@H]1CSCN1)C(=O)N[C@H]1CO[C@H]2[C@@H]1OC[C@@H]2O[N+](=O)[O-] [Compound 68, 5-[[2-[[(4-n-thiazolidinyl)carbonyl]amino]-1-((2S)-2-(2'-thiomethyl)-ethyl)-oxoethyl]amino]-5-deoxy-2-O-nitro-1,4:3,6-dianhydro-L-iditol monohydrochloride]
BPs (min), period of action ([1]; 1 mg/kg i.d.): > 180 min | BPs, difference to base value ([1]; 1 mg/kg i.d.): -30 mmHg | LVEDP (min), period of action ([1]; 1 mg/kg i.d.): > 180 min | LVEDP, difference to base value ([1]; 1 mg/kg i.d.): -3,0 mmHg | Emax [2]: 90% | IC50 [2]: 29 µM

CC(=O)NCSC[C@H](N)C(=O)O[C@H]1CO[C@H]2[C@@H]1OC[C@H]2O[N+](=O)[O-] [Compound 21, S-[(Acetylamino)methyl]-L-cysteine ester of 5-O-nitro-1,4:3,6-dianhydro-D-glucitol monohydrochloride]
BPs (min), period of action ([1]; 3 mg/kg i.d.): > 60 min | BPs, difference to base value ([1]; 3 mg/kg i.d.): -5 mmHg | LVEDP (min), period of action ([1]; 3 mg/kg i.d.): > 60 min | LVEDP, difference to base value ([1]; 3 mg/kg i.d.): -2,0 mmHg | Emax [2]: 31% | IC50 [2]: 100 µM

O=C(N[C@H]1CO[C@H]2[C@@H]1OC[C@@H]2O[N+](=O)[O-])[C@@H]1CCCN1 [Compound 14, L-Proline amide of 5-amino-5-deoxy-2-O-nitro-1,4:3,6-dianhydro-L-iditol monohydrochloride]
BPs (min), period of action ([1]; 3 mg/kg i.v.): > 90 min | BPs, difference to base value ([1]; 3 mg/kg i.v.): -10 mmHg | LVEDP (min), period of action ([1]; 3 mg/kg i.v.): > 90 min | LVEDP, difference to base value ([1]; 3 mg/kg i.v.): -2,0 mmHg | Emax [2]: 98% | IC50 [2]: 14 µM

NCC(=O)O[C@@H]1CO[C@H]2[C@@H]1OC[C@@H]2O[N+](=O)[O-] [Compound 3, Glycine ester of 2-O-nitro-1,4:3,6-dianhydro-D-glucitol monohydrochloride]
BPs (min), period of action ([1]; 3 mg/kg i.d.): > 60 min | BPs, difference to base value ([1]; 3 mg/kg i.d.): -10 mmHg | LVEDP (min), period of action ([1]; 3 mg/kg i.d.): > 60 min | LVEDP, difference to base value ([1]; 3 mg/kg i.d.): -4,5 mmHg | Emax [2]: 63% | IC50 [2]: 79 µM

O=C(CNC(=O)[C@@H]1CSCN1)O[C@H]1CO[C@H]2[C@@H]1OC[C@H]2O[N+](=O)[O-] [Compound 73, 2-O-[2-[[(4-L-thiazolidinyl)carbonyl]amino]-1-oxoethyl]-5-O-nitro-1,4:3,6-dianhydro-D-glucitol monohydrochloride]
BPs (min), period of action ([1]; 3 mg/kg i.v.): 60 min | BPs, difference to base value ([1]; 3 mg/kg i.v.): -15 mmHg | LVEDP (min), period of action ([1]; 3 mg/kg i.v.): 60 min | LVEDP, difference to base value ([1]; 3 mg/kg i.v.): -2,0 mmHg | Emax [2]: 66% | IC50 [2]: 53 µM

CC(C)(C)OC(=O)N[C@@H](CSSc1ccccc1[N+](=O)[O-])C(=O)N[C@H]1CO[C@H]2[C@@H]1OC[C@@H]2O[N+](=O)[O-] [Compound 35, S-[(2-Nitrophenyl)thio]-N-[(t-butoxy)carbonyl]-L-cysteine amide of 5-amino-5-deoxy-2-O-nitro-1,4:3,6-dianhydro-L-iditol]
BPs (min), period of action ([1]; 3 mg/kg i.v.): > 30 min | BPs, difference to base value ([1]; 3 mg/kg i.v.): -10 mmHg | LVEDP (min), period of action ([1]; 3 mg/kg i.v.): 0 min | LVEDP, difference to base value ([1]; 3 mg/kg i.v.): 0,0 mmHg | Emax [2]: 46% | IC50 [2]: 100 µM

O=C(N[C@H]1CO[C@H]2[C@@H]1OC[C@H]2O[N+](=O)[O-])c1ccccc1SCc1ccccc1 [Compound 45]
BPs (min), period of action ([1]; 3 mg/kg i.v.): > 120 min | BPs, difference to base value ([1]; 3 mg/kg i.v.): -10 mmHg | LVEDP (min), period of action ([1]; 3 mg/kg i.v.): 0 min | LVEDP, difference to base value ([1]; 3 mg/kg i.v.): 0,0 mmHg
